Assay results from ChEMBL document CHEMBL1122598, “A cannabinoid derived prototypical analgesic” (1984).

Columns and labels:
Type in all cases: functional
Mus musculus [1] = species: Mus musculus; experiment: Analgesic activity was determined by mouse hot plate (HP), 1 hour postdose.
Mus musculus [2] = species: Mus musculus; experiment: Analgesic activity was determined by mouse phenylbenzoquinone (PBQ) induced writhing, 1 hour postdose.
Mus musculus [3] = species: Mus musculus; experiment: Analgesic activity was determined by mouse tail flick (TF), 1 hour postdose.
Rattus norvegicus [4] = species: Rattus norvegicus; experiment: Analgesic activity was determined by rat flinch jump (FJ), 2 hour postdose.
Rattus norvegicus [5] = species: Rattus norvegicus; experiment: Analgesic activity was determined by rat tail clamp assay(RTC), 2 hour postdose.
Mus musculus [6] = experiment: Analgesic activity was determined by Mouse phenylbenzoquinone writhing test(PBQ) at a dose of 10 mg/kg subcutaneous administration.; details: sc
Mus musculus [7] = experiment: Analgesic activity was determined by Mouse phenylbenzoquinone writhing test(PBQ) at a dose of 100 mg/kg subcutaneous administration.; details: sc
Mus musculus [8] = experiment: Analgesic activity was determined by Mouse phenylbenzoquinone writhing test(PBQ) at a dose of 32 mg/kg subcutaneous administration.; details: sc
Mus musculus [9] = experiment: Analgesic activity was determined by Mouse phenylbenzoquinone writhing test(PBQ) at a dose of 56 mg/kg subcutaneous administration.; details: sc
Mus musculus [10] = experiment: Analgesic activity was determined by mouse phenylbenzoquinone writhing test(PBQ) at a dose 56 mg/kg subcutaneous administration.; details: sc

| SMILES | MPE50 (Mus musculus [1]) | MPE50 (Mus musculus [2]) | MPE50 (Mus musculus [3]) | MPE50 (Rattus norvegicus [4]) | MPE50 (Rattus norvegicus [5]) | inhibition in vivo at 10 mg/kg (Mus musculus [6]) | inhibition in vivo at 100 mg/kg (Mus musculus [7]) | inhibition in vivo at 32 mg/kg (Mus musculus [8]) | inhibition in vivo at 56 mg/kg (Mus musculus [9]) | inhibition in vivo at 56 mg/kg (Mus musculus [10]) |
| --- | --- | --- | --- | --- | --- | --- | --- | --- | --- | --- |
| CCCCCc1cc(O)c2c(c1)OC(C)(C)[C@@H]1CCC(C)=C[C@@H]21 [DRONABINOL] | >178 mg/kg | 5.9 mg/kg | 55 mg/kg | 83.1 mg/kg | 29.1 mg/kg |  |  |  |  |  |
| CCCCCCC(C)(C)c1ccc(C(C)CC(C)O)c(O)c1 (stereo unspecified) |  |  |  |  |  | 27% | 53% | 52% | 50% | 55% |
| CCCCCCC(C)(C)c1ccc(C(C)CC(C)=O)c(O)c1 (stereo unspecified) |  |  |  |  |  |  |  |  |  | 0% |
| CCCCCc1cc(O)c2c(c1)OC(C)(C)[C@@H]1CC[C@@H](O)C[C@@H]21 | 34.4 mg/kg | 0.63 mg/kg | 9.1 mg/kg | 36.4 mg/kg | 7 mg/kg |  |  |  |  |  |
| CN1CC[C@]23c4c5ccc(O)c4O[C@H]2[C@@H](O)C=C[C@H]3[C@H]1C5 [MORPHINE] | 4.2 mg/kg | 1.8 mg/kg | 5.7 mg/kg | 10.3 mg/kg | 4.8 mg/kg |  |  |  |  |  |
| CCCCCCC(C)(C)c1ccc([C@H]2CCC[C@H](O)C2)c(O)c1 | >56 mg/kg | 3.8 mg/kg | 55.7 mg/kg | 17.8 mg/kg | 12.3 mg/kg |  |  |  |  |  |
| CCCCCCC(C)(C)c1ccc([C@H]2CCCC(=O)C2)c(O)c1 | >32 mg/kg | 4.5 mg/kg | 15.3 mg/kg | 11.5 mg/kg | 26.1 mg/kg |  |  |  |  |  |
| CCCCCCC(C)(C)c1ccc([C@H]2CCC[C@@H](O)C2)c(O)c1 | 8.1 mg/kg | 1 mg/kg | 4.4 mg/kg | 4.9 mg/kg | 4.7 mg/kg |  |  |  |  |  |
